Data from article PMC10959927, “Platinum iodido drugs show potential anti-tumor activity, affecting cancer cell metabolism and inducing ROS and senescence in gastrointestinal cancer cells” (Communications Biology, 2024).
Where “and” joins values, the source holds several entries; their conditions need not be identical. Equal entries are not always repeated.

Assays:
Type in all cases: cell-based, human
[1] = test system: PANC1 cells; assay: Western blotting (p-p53, p-JNK, p-p38, p-ERK, p-CHK1/2, Mcl1, BID, BAX); settings: for fold change p-ERK vs Tubulin / fold change p-JNK vs Tubulin / fold change p-p38 vs Tubulin / fold change p-p53 vs Tubulin: PANC1, Fig. 4A, replicate values
Experimental: (§1) Total protein extracts were obtained by adding the lysis buffer: 25 mM HEPES pH 7.5, 0.3 M NaCl, 1.5 mM MgCl2, 0.2 mM EDTA, 0.5 mM DTT, 20 mM β-glicerophosphate, 0.1 mM Na3VO4, 0.1% triton X-100; in the presence of protease inhibitors. Twenty μg of protein per sample were loaded and resolved using 8%, 10% or 15% SDS-PAGE polyacrylamide gels, and then transferred onto PVDF membranes, followed by immunodetection using appropriate antibodies, purchased from Santa Cruz Technology: Mcl-1 (sc-819), Cell Signaling Technology: BIM, BID, BAX (#9942), p-p38 (1:2000, #4631), p-p53^ser15 (#9284), p-ERK1/2 (1:2000, #9106), p-CHK1^ser345 and p-CHK2^ser19 (#9931), Promega Corporation-Spain: p-JNK (#V7932), or Sigma-Aldrich: α-tubulin (1:10000, #TP026). Unless indicated, all antibodies were diluted 1:1000. Secondary antibodies conjugated with horseradish peroxidase were purchased from BioRad, and chemiluminescence detection was performed using ECL (Santa Cruz Biotechnology).

[2] = test system: AGS cells; assay: as above; settings: for fold change p-ERK vs Tubulin / fold change p-JNK vs Tubulin / fold change p-p38 vs Tubulin / fold change p-p53 vs Tubulin: Fig. 4A, replicate values; for fold change BAX vs Tubulin / fold change BID full length vs Tubulin / fold change MCL1 vs Tubulin: Fig. S3B
Experimental: as §1

[3] = test system: AGS cells; assay: SA-β-Gal histochemical staining; settings: Fig. S4A
Experimental: SA-β-Gal activity was measured following two different approaches. (i) AGS, MKN45 and PANC1 cells (5 × 10^4) were seeded in 24-multiwell dishes and incubated overnight. […] For flow cytometry cell senescence detection, cells were tripsinized, fixed for 15 min with PFA 4% and stained with the CellEvent Senescense Green Flow Cytometry Assay Kit (C10840, Invitrogen) according to manufacturer’s instructions. CellEvent Senescense Green Probe was used at a 1:500 dilution and fluorescence was detected using the filter (Ex488nm/Em530/30) BL1 with a 4-laser Attune NxT Acoustic Cytometer (Thermo Fisher Scientific). […] After 3 h, the treatments were removed, new supplemented medium was added, and cells were incubated for an additional 24 h. Finally, SA-β-Gal staining was performed using the Senescence Cells Histochemical Staining Kit (CS0030-1KT) according to the manufacturer’s instructions.

How did the “fold change MCL1 vs Tubulin” value ([1]; PANC1, time 6 h, Fig. S3B) turn out when `CC(C)[NH][Pt@SP1]([I])([I])[NH]C(C)C` [I6, cis-[PtI2(isopropylamine)2]] was run?
The value was 1.135 fold change and 2.241 fold change and 1.84 fold change.

And the “fold change BAX vs Tubulin” value ([1]; PANC1, time 24 h, Fig. S3B)?
The value was 2.639 fold change and 1.942 fold change and 1.489 fold change.

And the “fold change p-ERK vs Tubulin” value ([1]; Time 1 h)?
Its value is 1.209 fold change and 3.621 fold change and 2.27 fold change.

And the “fold change p-JNK vs Tubulin” value ([1]; Time 1 h)?
The value was 1.809 fold change and 1.288 fold change and 3.68 fold change.

What about the “fold change p-p38 vs Tubulin” value ([1]; Time 1 h) of the same compound?
The value was 2.603 fold change and 1.024 fold change and 1.89 fold change.

What about the “fold change p-p53 vs Tubulin” value ([1]; Time 1 h) of the same compound?
The value was 0.76 fold change and 1.24 fold change and 0.65 fold change.

What about the “fold change p-ERK vs Tubulin” value ([1]; Time 3 h) of the same compound?
The value was 0.5754 fold change and 1.698 fold change and 1.17 fold change.

What about the “fold change p-JNK vs Tubulin” value ([1]; Time 3 h) of the same compound?
Its value is 0.5257 fold change and 0.2509 fold change and 3.356 fold change.

And the “fold change p-p38 vs Tubulin” value ([1]; Time 3 h)?
Its value is 1.159 fold change and 1.033 fold change and 1.07 fold change.

What about the “fold change p-p53 vs Tubulin” value ([1]; Time 3 h) of the same compound?
Its value is 0.78 fold change and 1.36 fold change and 1.16 fold change.

What about the “fold change p-ERK vs Tubulin” value ([1]; Time 6 h) of the same compound?
The value was 0.6008 fold change and 2.546 fold change and 1.66 fold change.

And the “fold change p-JNK vs Tubulin” value ([1]; Time 6 h)?
The value was 0.6321 fold change and 0.3554 fold change and 4.716 fold change.

What about the “fold change p-p38 vs Tubulin” value ([1]; Time 6 h) of the same compound?
Its value is 0.976 fold change and 1.156 fold change and 1.0897 fold change.

And the “fold change p-p53 vs Tubulin” value ([1]; Time 6 h)?
Its value is 1.01 fold change and 0.69 fold change and 0.99 fold change.

And the “fold change p-ERK vs Tubulin” value ([1]; Time 24 h)?
The value was 0.4409 fold change and 1.892 fold change and 1.09 fold change.

And the “fold change p-JNK vs Tubulin” value ([1]; Time 24 h)?
Its value is 0.5968 fold change and 0.8335 fold change and 2.596 fold change.

What about the “fold change p-p38 vs Tubulin” value ([1]; Time 24 h) of the same compound?
Its value is 1.91 fold change and 1.31 fold change and 1.357 fold change.

And the “fold change p-p53 vs Tubulin” value ([1]; Time 24 h)?
The value was 2.28 fold change and 1.99 fold change and 1.04 fold change.

And the “activation of p53 (p-p53 western blot)” value ([2]; IC50, 1, 3, 6 and 24 h)?
The value was “did not activate p53”.

And the “phosphorylation of CHK1/2 (DDR pathway, western blot)” value ([2]; IC50, 1, 3, 6 or 24 h)?
Its value is “did not activate”.

And the “fold change p-ERK vs Tubulin” value ([2]; Time 1 h)?
The value was 2.604 fold change and 2.955 fold change and 1.91 fold change.

And the “fold change p-JNK vs Tubulin” value ([2]; Time 1 h)?
Its value is 1.478 fold change and 1.305 fold change and 1.607 fold change.

And the “fold change p-p38 vs Tubulin” value ([2]; Time 1 h)?
Its value is 1.462 fold change and 1.894 fold change and 2.196 fold change.

And the “fold change p-p53 vs Tubulin” value ([2]; Time 1 h)?
Its value is 0.562 fold change and 0.6997 fold change and 1.25 fold change.

And the “fold change p-ERK vs Tubulin” value ([2]; Time 3 h)?
Its value is 1.3326 fold change and 1.834 fold change and 1.749 fold change.

What about the “fold change p-JNK vs Tubulin” value ([2]; Time 3 h) of the same compound?
Its value is 0.8249 fold change and 0.7387 fold change and 1.623 fold change.

What about the “fold change p-p38 vs Tubulin” value ([2]; Time 3 h) of the same compound?
Its value is 1.1118 fold change and 2.258 fold change and 0.7258 fold change.

And the “fold change p-p53 vs Tubulin” value ([2]; Time 3 h)?
Its value is 0.3925 fold change and 0.7056 fold change and 1.358 fold change.

And the “fold change p-ERK vs Tubulin” value ([2]; Time 6 h)?
Its value is 1.495 fold change and 1.997 fold change and 1.556 fold change.

And the “fold change p-JNK vs Tubulin” value ([2]; Time 6 h)?
Its value is 0.7672 fold change and 1.335 fold change and 1.232 fold change.

What about the “fold change p-p38 vs Tubulin” value ([2]; Time 6 h) of the same compound?
Its value is 1.675 fold change and 3.507 fold change and 1.086 fold change.

And the “fold change p-p53 vs Tubulin” value ([2]; Time 6 h)?
The value was 0.5607 fold change and 0.7436 fold change and 1.621 fold change.

And the “fold change p-ERK vs Tubulin” value ([2]; Time 24 h)?
The value was 0.7805 fold change and 2.6246 fold change and 1.218 fold change.

And the “fold change p-JNK vs Tubulin” value ([2]; Time 24 h)?
The value was 0.8639 fold change and 0.8519 fold change and 1.138 fold change.

And the “fold change p-p38 vs Tubulin” value ([2]; Time 24 h)?
The value was 2.641 fold change and 0.9281 fold change and 1.316 fold change.

And the “fold change p-p53 vs Tubulin” value ([2]; Time 24 h)?
Its value is 0.6954 fold change and 1.1071 fold change and 1.226 fold change.

And the “fold change BAX vs Tubulin” value ([2]; time 1 h)?
The value was 1.29 fold change and 0.734 fold change and 1.017 fold change.

What about the “fold change BID full length vs Tubulin” value ([2]; time 1 h) of the same compound?
Its value is 0.722 fold change and 1.325 fold change and 0.67 fold change.

And the “fold change MCL1 vs Tubulin” value ([2]; time 1 h)?
Its value is 0.493 fold change and 0.586 fold change and 0.597 fold change.

And the “fold change BAX vs Tubulin” value ([2]; time 3 h)?
The value was 0.759 fold change and 1.497 fold change and 1.286 fold change.

What about the “fold change BID full length vs Tubulin” value ([2]; time 3 h) of the same compound?
The value was 1.126 fold change and 1.525 fold change and 0.803 fold change.

And the “fold change MCL1 vs Tubulin” value ([2]; time 3 h)?
Its value is 0.592 fold change and 1.105 fold change and 0.81 fold change.

And the “fold change BAX vs Tubulin” value ([2]; time 6 h)?
The value was 1.353 fold change and 1.942 fold change and 1.061 fold change.

And the “fold change MCL1 vs Tubulin” value ([2]; time 6 h)?
Its value is 0.911 fold change and 1.666 fold change and 1.549 fold change.

What about the “fold change BID full length vs Tubulin” value ([2]; time 24 h) of the same compound?
Its value is 1.406 fold change and 1.917 fold change and 1.97 fold change.

And the “Fold change % Senescence” value [3]?
The value was 49.02% and 67.7% and 53.18%.
